Here are results for one compound from patent US11761045B2, “Splice variants associated with neomorphic SF3B1 mutants” (Eisai R&D Management Co., Ltd., priority 2015, dated 2023).

The target of experiment [1] is T1, SF3B1^WT (Homo sapiens, UniProt O75533+Q7RTV0). As to the kind of experiment: In vitro splicing assay (IVS), Ad2 pre-mRNA substrate, nuclear extracts. The experiment is classed as biochemical. More on the design: expressed in transfected cells; host or cells: nuclear extract of 293F cells transfected with pFLAG-CMV-2-SF3B1 (the same assay was also run with Nalm-6 nuclear extract). The note with it: nuclear extracts from Nalm-6 (SF3B1^WT) cells or 293F cells expressing Flag-tag SF3B1^WT. On the procedure:
(§1) E7107 is a small-molecule compound that inhibits splicing by targeting the U2 snRNP-associated complex SF3B (Kotake, Y. et al. “Splicing factor SF3b as a target of the antitumor natural product pladienolide.” Nat Chem Biol 3, 570-575, doi:10.1038/nchembio.2007.16 [2007]).
(§2) Nuclear extracts were prepared from 293F cells transfected with pFLAG-CMV-2-SF3B1 plasmids, or from isogenic Nalm-6 cells (SBH Sciences). The plasmids were generated by cloning the mxSF3B1 gene into the HindIII and KpnI sites of pFLAG-CMV2 (Sigma), and the mutations mxSF3B1^K700E, mxsF3B1^R1074H and mxSF3B1^K700E-R1074H were introduced using […]. Cell pellets were resuspended in hypotonic buffer (10 mM HEPES pH 7.9, 1.5 mM MgCl2, 10 mM KCl, 0.2 mM PMSF, and 0.5 mM DTT; for Nalm-6 cells, 40 mM KCl was used). The suspension was brought up to a total of five packed cell volumes (PCV). After centrifugation, the supernatant was discarded, and the cells were brought up to 3 PCV with hypotonic buffer, and incubated on ice for 10 minutes. Cells were lysed using a dounce homogenizer and then centrifuged. […] Protein concentration was determined using NanoDrop 8000 UV-Vis spectrophotometer (Thermo Scientific). […]

Experiment [2] deals with T1, SF3B1^WT. In words: Competitive binding assay (SPA, 3H-probe molecule) with Flag-tag SF3B1 from 293F cells. The note with it: one nM 3H-probe; Flag-tag SF3B1^WT from transfected 293F cells; read-out: IC50, competitive inhibition of binding of the 3H-probe molecule. More on the design: expressed in transfected cells; host or cells: 293F cells (Life Technologies), transient transfection with pFLAG-CMV-2-SF3B1. On the procedure:
The ability of E7107 to bind both SF3B1^WT and SF3B1^K700E proteins was evaluated in a competitive binding assay using Flag-tag SF3B1 proteins immunoprecipitated with anti-Flag antibody from transiently transfected 293F cells. Batch immobilization of antibody to beads was prepared by incubating 80 μg of anti-SF3B1 antibody (MBL International) and 24 mg anti-mouse PVT SPA scintillation beads (PerkinElmer) for 30 minutes. After centrifugation, the antibody-bead mixture was resuspended in PBS supplemented with PhosSTOP phosphatase inhibitor cocktail (Roche) and complete ULTRA protease inhibitor cocktail (Roche). Nuclear extracts were prepared by diluting 40 mg into a total volume of 16 mL PBS with phosphatase and protease inhibitors, and the mixture was centrifuged. The supernatant was transferred into a clean tube, and the antibody-bead mixture was added and incubated for two hours. The beads were collected by centrifuging, washed twice with PBS+0.1% Triton X-100, and resuspended with 4.8 mL of PBS. 100 μL binding reactions were prepared using slurry and varying concentrations of E7107. […] The mixture was incubated at room temperature for 15 minutes, and luminescence signals were read using a MicroBeta2 Plate Counter (PerkinElmer).

In a further experiment the target is SF3B1^K700E (Homo sapiens, UniProt O75533+Q7RTV0, K700E). In words: In vitro splicing assay (IVS), Ad2 pre-mRNA substrate, nuclear extracts. The experiment is classed as biochemical. More on the design: expressed in transfected cells; host or cells: nuclear extract of 293F cells transfected with pFLAG-CMV-2-SF3B1 K700E (the same assay was also run with Nalm-6 SF3B1 K700E nuclear extract). The note with it: nuclear extracts from Nalm-6 SF3B1^K700E cells or 293F cells expressing Flag-tag SF3B1^K700E. As for the experimental part:
as §1, §2

T1 sequence (Q15393 whole entry): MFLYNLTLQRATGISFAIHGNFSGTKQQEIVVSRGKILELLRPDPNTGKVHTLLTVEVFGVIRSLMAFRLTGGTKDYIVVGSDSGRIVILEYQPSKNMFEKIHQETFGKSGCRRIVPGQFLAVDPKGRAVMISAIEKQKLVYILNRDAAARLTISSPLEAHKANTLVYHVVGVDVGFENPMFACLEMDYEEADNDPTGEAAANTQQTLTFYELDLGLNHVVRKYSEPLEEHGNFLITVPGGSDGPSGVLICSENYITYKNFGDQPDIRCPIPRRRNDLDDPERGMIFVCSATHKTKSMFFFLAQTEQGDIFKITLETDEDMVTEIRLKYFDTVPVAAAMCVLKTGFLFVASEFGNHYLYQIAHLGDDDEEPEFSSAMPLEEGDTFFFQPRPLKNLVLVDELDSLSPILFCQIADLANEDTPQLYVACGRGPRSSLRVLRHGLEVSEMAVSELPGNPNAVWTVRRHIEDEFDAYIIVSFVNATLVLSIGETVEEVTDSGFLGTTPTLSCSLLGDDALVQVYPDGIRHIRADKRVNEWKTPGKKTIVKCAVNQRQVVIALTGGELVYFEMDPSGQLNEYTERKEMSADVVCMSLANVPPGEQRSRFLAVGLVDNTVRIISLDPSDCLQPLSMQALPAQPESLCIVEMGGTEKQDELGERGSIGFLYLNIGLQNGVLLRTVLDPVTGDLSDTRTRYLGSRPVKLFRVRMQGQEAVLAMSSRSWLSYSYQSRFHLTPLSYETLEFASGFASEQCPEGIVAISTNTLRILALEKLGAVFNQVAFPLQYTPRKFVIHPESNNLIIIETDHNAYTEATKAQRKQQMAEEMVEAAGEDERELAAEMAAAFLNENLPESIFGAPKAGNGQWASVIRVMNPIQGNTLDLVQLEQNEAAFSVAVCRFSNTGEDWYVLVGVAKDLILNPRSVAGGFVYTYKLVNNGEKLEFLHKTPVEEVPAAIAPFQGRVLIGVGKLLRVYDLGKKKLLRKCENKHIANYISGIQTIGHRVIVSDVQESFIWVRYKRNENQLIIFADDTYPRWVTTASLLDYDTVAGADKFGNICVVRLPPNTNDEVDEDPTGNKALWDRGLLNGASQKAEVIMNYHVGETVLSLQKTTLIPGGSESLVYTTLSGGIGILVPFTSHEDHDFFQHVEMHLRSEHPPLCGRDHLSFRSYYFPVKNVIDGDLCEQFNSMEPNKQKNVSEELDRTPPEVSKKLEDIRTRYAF
T1 sequence (Q9BWJ5 whole entry, further chain): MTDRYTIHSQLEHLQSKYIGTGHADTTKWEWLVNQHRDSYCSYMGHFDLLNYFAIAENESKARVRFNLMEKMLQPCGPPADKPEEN
T1 sequence (Q7RTV0 whole entry): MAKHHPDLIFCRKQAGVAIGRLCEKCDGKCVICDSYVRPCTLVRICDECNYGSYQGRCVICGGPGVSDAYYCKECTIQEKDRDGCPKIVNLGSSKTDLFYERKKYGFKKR
T1 sequence (O75533 whole entry): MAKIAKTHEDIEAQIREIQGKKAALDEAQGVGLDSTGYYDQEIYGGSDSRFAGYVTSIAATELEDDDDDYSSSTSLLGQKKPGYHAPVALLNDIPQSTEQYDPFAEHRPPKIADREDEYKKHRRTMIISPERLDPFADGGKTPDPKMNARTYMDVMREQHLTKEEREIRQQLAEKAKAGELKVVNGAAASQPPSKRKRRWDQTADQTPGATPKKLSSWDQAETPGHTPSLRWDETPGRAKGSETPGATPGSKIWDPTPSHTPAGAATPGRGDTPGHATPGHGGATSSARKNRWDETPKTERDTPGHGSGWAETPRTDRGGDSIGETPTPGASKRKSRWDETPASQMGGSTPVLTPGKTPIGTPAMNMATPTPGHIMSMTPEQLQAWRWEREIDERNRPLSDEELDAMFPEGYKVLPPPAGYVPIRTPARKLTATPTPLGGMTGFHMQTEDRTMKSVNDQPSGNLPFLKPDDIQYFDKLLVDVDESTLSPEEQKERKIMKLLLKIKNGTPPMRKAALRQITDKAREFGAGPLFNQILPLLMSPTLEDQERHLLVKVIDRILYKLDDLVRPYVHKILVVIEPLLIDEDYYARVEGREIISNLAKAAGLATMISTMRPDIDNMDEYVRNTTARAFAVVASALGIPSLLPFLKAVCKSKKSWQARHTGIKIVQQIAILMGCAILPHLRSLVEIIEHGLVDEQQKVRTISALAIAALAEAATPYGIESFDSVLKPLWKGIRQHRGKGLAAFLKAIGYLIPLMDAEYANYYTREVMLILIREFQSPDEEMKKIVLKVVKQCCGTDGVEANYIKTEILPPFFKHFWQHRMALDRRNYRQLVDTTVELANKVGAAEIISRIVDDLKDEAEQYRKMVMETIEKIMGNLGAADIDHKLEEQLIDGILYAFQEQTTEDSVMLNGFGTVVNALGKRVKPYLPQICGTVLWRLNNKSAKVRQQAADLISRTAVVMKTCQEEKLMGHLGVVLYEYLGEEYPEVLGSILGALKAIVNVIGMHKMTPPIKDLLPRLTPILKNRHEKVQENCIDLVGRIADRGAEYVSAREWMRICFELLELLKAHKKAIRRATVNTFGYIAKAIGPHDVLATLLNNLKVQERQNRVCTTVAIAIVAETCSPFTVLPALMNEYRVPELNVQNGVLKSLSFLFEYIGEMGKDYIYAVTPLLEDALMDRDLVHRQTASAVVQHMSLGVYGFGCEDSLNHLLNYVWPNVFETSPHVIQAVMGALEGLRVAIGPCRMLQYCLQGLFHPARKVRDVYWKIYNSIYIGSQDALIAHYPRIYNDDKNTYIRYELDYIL

As to `CC[C@H](O)[C@@H](C)[C@H]1O[C@@H]1C[C@@](C)(O)/C=C/C=C(\C)[C@H]1OC(=O)C[C@H](O)CC[C@@](C)(O)[C@@H](OC(=O)N2CCN(C3CCCCCC3)CC2)/C=C/[C@@H]1C` [Compound E7107], the “inhibition of splicing of Ad2 pre-mRNA in nuclear extracts” value against SF3B1^WT [1] and at SF3B1^K700E was “able to inhibit splicing” each time. For the same compound, on SF3B1^WT [2], the half-inhibitory concentration (IC50) is 13 nM.
